Experimental data: patent US20240409585A1, “MACROCYCLIC IMMUNOMODULATORS” (priority 2021, published 2024)
Where two headings read alike, the source gives them in different places. Bridge positions count the residues as written; N and C are the ends. Square brackets hold non-standard residues; d marks the D form. Peptide text beside a SMILES is read from it. * marks the point of attachment. Phe(3,4,5-F3) = N[C@@H](Cc1cc(F)c(F)c(F)c1)C(=O)O; Phe(4-COOH) = N[C@@H](Cc1ccc(C(=O)O)cc1)C(=O)O; Phe(3,4-F2) = N[C@@H](Cc1ccc(F)c(F)c1)C(=O)O; Bip = N[C@@H](Cc1ccc(-c2ccccc2)cc1)C(=O)O; Phe(3-Cl) = N[C@@H](Cc1cccc(Cl)c1)C(=O)O; Phe(3-Me) = Cc1cccc(C[C@H](N)C(=O)O)c1; Val(3-OH) = CC(C)(O)[C@H](N)C(=O)O; hArg = N=C(N)NCCCC[C@H](N)C(=O)O; hPhe = N[C@@H](CCc1ccccc1)C(=O)O; Cha = N[C@@H](CC1CCCCC1)C(=O)O; Carboxymethyl = O=C(O)C*; NMeA = CN[C@@H](C)C(=O)O; Orn = NCCC[C@H](N)C(=O)O; Dab = NCC[C@H](N)C(=O)O

Target: T1, Alexa fluor-647 labeled human PD-L1-Ig binding to Jurkat cell line over-expressing human PD-1 (Homo sapiens, UniProt Q15116)
T1 construct: expressed in transfected cells; host or cells: Jurkat
T1 sequence (Q15116 25-288): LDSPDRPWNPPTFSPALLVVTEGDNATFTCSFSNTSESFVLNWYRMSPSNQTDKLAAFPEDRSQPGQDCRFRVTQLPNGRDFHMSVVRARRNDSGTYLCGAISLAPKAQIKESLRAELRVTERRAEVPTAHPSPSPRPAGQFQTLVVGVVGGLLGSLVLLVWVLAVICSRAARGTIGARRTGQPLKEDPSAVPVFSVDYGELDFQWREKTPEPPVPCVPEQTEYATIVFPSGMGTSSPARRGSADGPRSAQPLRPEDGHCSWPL
Test: Jurkat-PD-1 Cell Binding High-Content Screening Assay (CBA): Method 3 (Alexa fluor-647 labeled PD-L1-Ig)
Conditions: Jurkat-PD-1 cells, Alexa fluor-647 labeled PD-L1-Ig 177 nM
How it was run: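 Readout by high-content imaging of PFA-fixed, Hoechst-stained cells after 1 h with 177 nM (final) Alexa fluor-647 PD-L1-Ig. Compound was added first to hPD-1 Jurkat cells in RPMI plus 10% FCS for 2 h at 37 °C.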

[1] = head μM, read-out: CBA Method 3 μM

Compound	IC50 [1] [µM]	IC50 (nM, read-out: CBA Method 3) [µM]
Cc1cccc(C[C@@H]2NC(=O)[C@H](CC(=O)O)NC(=O)[C@H](Cc3ccc(OCC(=O)O)cc3)NC(=O)[C@H](CCCCNC(=N)N)NC(=O)CSC[C@@H](C(=O)N[C@@H](CCN)C(N)=O)NC(=O)[C@H](CO)NC(=O)[C@H](C(C)(C)O)NC(=O)[C@H](CC3CCCCC3)NC(=O)[C@H](CCN)NC(=O)[C@@H](CC(C)C)NC(=O)[C@H](C)N(C)C(=O)[C@H](CCC(N)=O)NC(=O)[C@H](Cc3ccc(-c4ccccc4)cc3)NC(=O)[C@H](CCc3ccccc3)NC2=O)c1 [Example 5282] ({CH2CO}-[hArg]Y(Carboxymethyl)D[Phe(3-Me)][hPhe][Bip]Q[NMeA][dL][Dab][Cha][Val(3-OH)]SC[Dab]-NH2; thioether N-14)	0.17	
Cc1cccc(C[C@@H]2NC(=O)[C@H](CC(=O)O)NC(=O)[C@H](Cc3ccc(OCC(=O)O)cc3)NC(=O)[C@H](CCCCNC(=N)N)NC(=O)CSC[C@@H](C(=O)N[C@@H](CCN)C(N)=O)NC(=O)[C@H](CCC(=O)O)NC(=O)[C@H](C(C)C)NC(=O)[C@H](CC3CCCCC3)NC(=O)[C@H](CCN)NC(=O)[C@@H](CC(C)C)NC(=O)[C@H](C)N(C)C(=O)[C@H](CCC(N)=O)NC(=O)[C@H](Cc3ccc(-c4ccccc4)cc3)NC(=O)[C@H](CCc3ccccc3)NC2=O)c1 [Example 5283] ({CH2CO}-[hArg]Y(Carboxymethyl)D[Phe(3-Me)][hPhe][Bip]Q[NMeA][dL][Dab][Cha]VEC[Dab]-NH2; thioether N-14)	0.01	
Cc1cccc(C[C@@H]2NC(=O)[C@H](CC(=O)O)NC(=O)[C@H](Cc3ccc(OCC(=O)O)cc3)NC(=O)[C@H](Cc3ccc(F)c(F)c3)NC(=O)CSC[C@@H](C(=O)N[C@@H](CCN)C(N)=O)NC(=O)[C@H](CCCN)NC(=O)[C@H](C(C)C)NC(=O)[C@H](CC3CCCCC3)NC(=O)[C@H](CCN)NC(=O)[C@@H](CC(C)C)NC(=O)[C@H](C)N(C)C(=O)[C@H](CCC(N)=O)NC(=O)[C@H](Cc3ccc(-c4ccccc4)cc3)NC(=O)[C@H](Cc3ccc(C(=O)O)cc3)NC2=O)c1 [Example 5285] ({CH2CO}-[Phe(3,4-F2)]Y(Carboxymethyl)D[Phe(3-Me)][Phe(4-COOH)][Bip]Q[NMeA][dL][Dab][Cha]V[Orn]C[Dab]-NH2; thioether N-14)	0.3	

Now from value to compound:

IC50 [1] [µM]	IC50 (nM, read-out: CBA Method 3) [µM]	Compound
	0.0018	Cc1cccc(C[C@@H]2NC(=O)[C@H](CC(=O)O)NC(=O)[C@H](Cc3ccc(OCC(=O)O)cc3)NC(=O)[C@H](Cc3cccc(Cl)c3)NC(=O)CSC[C@@H](C(=O)N[C@@H](CCN)C(N)=O)NC(=O)[C@H](CCCN)NC(=O)[C@H](C(C)C)NC(=O)[C@H](CC3CCCCC3)NC(=O)[C@H](CCN)NC(=O)[C@@H](CC(C)C)NC(=O)[C@H](C)N(C)C(=O)[C@H](CCC(N)=O)NC(=O)[C@H](Cc3ccc(-c4ccccc4)cc3)NC(=O)[C@H](Cc3ccc(C(=O)O)cc3)NC2=O)c1 [Example 5286] ({CH2CO}-[Phe(3-Cl)]Y(Carboxymethyl)D[Phe(3-Me)][Phe(4-COOH)][Bip]Q[NMeA][dL][Dab][Cha]V[Orn]C[Dab]-NH2; thioether N-14)
0.27		Cc1cccc(C[C@@H]2NC(=O)[C@H](CC(=O)O)NC(=O)[C@H](Cc3ccc(OCC(=O)O)cc3)NC(=O)[C@H](Cc3cc(F)c(F)c(F)c3)NC(=O)CSC[C@@H](C(=O)N[C@@H](CCN)C(N)=O)NC(=O)[C@H](CCCN)NC(=O)[C@H](C(C)C)NC(=O)[C@H](CC3CCCCC3)NC(=O)[C@H](CCN)NC(=O)[C@@H](CC(C)C)NC(=O)[C@H](C)N(C)C(=O)[C@H](CCC(N)=O)NC(=O)[C@H](Cc3ccc(-c4ccccc4)cc3)NC(=O)[C@H](Cc3ccc(C(=O)O)cc3)NC2=O)c1 [Example 5287] ({CH2CO}-[Phe(3,4,5-F3)]Y(Carboxymethyl)D[Phe(3-Me)][Phe(4-COOH)][Bip]Q[NMeA][dL][Dab][Cha]V[Orn]C[Dab]-NH2; thioether N-14)
